What was measured:
[1] = system: MSC which have under gone chondrogenesis; experiment: Cartilage / matrix formation by MSC which have undergone chondrogenesis, complex sugars in the media; assay type: cell-based; conditions: sugar in the media
Description: (§1) As used herein, the terms “complex sugar” and “complex sugars” includes monomeric and polymeric sugar chains. The use of sugars as a supplement enhancing extracellular matrix deposition is a unique aspect to the present invention. They can also be specific for cell type. As an example, previous studies have shown mesenchymal stem for chondrogenesis using a similar formulation as disclosed in the present invention, but without glucosamine sulfate. […] In a surprising aspect the present invention discloses that the use of certain complex sugars in the media massively increases the accumulation of calcium derived from osteocytes while the use of other sugars actively suppresses the accumulation of calcium. […] Fibroblasts allowed to acquire a MSC like state require galactose, glucuronic acid and glucosamine sulfate for cartilage formation, while hyaluronic acid will repress it. Examples of sugars are hyaluronic acid, galactose, glucosamine sulfate, glucuronic acid, mannose, sialic acid, chondroitin sulfate and galactosamine.

[2] = system: MSC which have undergone osteogenesis; experiment: Calcium / matrix deposition by MSC which have undergone osteogenesis, complex sugars in the media; assay type: cell-based; conditions: sugar in the media
Description: as §1

[3] = system: Fibroblasts allowed to acquire a MSC like state; experiment: Cartilage formation by fibroblasts allowed to acquire a MSC like state, complex sugars in the media; assay type: cell-based; conditions: sugar in the media
Description: as §1
Fibroblast cells were grown in FibroLife S2 on standard tissue culture-treated plastic. Fibroblasts cells were plated at 20,000 cells/cm^2 and allowed the cells to grow to 80-90% confluence actively proliferating.
The cells were centrifuged and the cells resuspended at 2.5×10^7 cells/ml in 1.5% alignate solution. The cells in the alignate solution are loaded into a syringe and applied to a stirred 100 mM calcium chloride solution to form microbeads. After 10 minutes, the calcium chloride solution was removed and the microbeads transferred to a 48 well plate. The microbeads were washed twice with 0.5 ml ChondroLife Chondrogenesis media (Table 7). The plates were incubated at 37° C., 5% CO2. The media was changed every 2-3 days for 3 weeks.
To examine the growth of the chondrocytes, the microbeads were fixed, frozen in OCT compound, cut in 5 μM sections and mounted on glass slides. The microbeads were stained with Alcian Blue to detect the presence of sulfated proteoglycans.

mesenchymal stem cells = conditions: shown previously; cited from earlier work
fibroblasts = conditions: has been shown; cited from earlier work
human fibroblast cells = experiment: Differentiation of human fibroblast cells into adipocytes (lipid accumulation, Oil Red O); assay type: cell-based; conditions: Troglitazone in combination with other elements
Method: Fibroblast cells were grown in FibroLife S2 on standard tissue culture-treated plastic. Fibroblasts cells were plated at 20,000 cells/cm^2 and allowed the cells to grow to confluence (roughly 80,000 cells/cm^2) in approximately 2 days. Once the cells reached confluence the cell culture media was changed to AdipoLife Complete DifFactor 1 media. The cell culture media continued to be changed every 2 days. After 4 days the cell culture media was changed to AdipoLife Complete DifFactor 2 media for 17 days. Lipid accumulation was visible after 5 days culture in the AdipoLife Complete DifFactor 2 media. After 3 weeks of culture the cells were stained with Oil Red O stained to assay for accumulated lipids

Row | Compound | effect on cartilage formation / matrix deposition [1] | effect on calcium deposition / matrix formation [2] | effect on cartilage formation [3] | effect on matrix secretion (mesenchymal stem cells) | effect on matrix deposition (fibroblasts) | surface of the human cell culture covered with lipid-accumulating cells (human fibroblast cells) [%]
1 | O=C[C@H](O)[C@@H](O)[C@@H](O)[C@H](O)CO [galactose] | vastly augments cartilage formation | vastly increased amounts of calcium deposition | require | – | – | –
2 | N[C@H]1C(O)O[C@H](CO)[C@@H](O)[C@@H]1O.O=S(=O)(O)O (some centres unmarked) [glucosamine sulfate] | repress matrix deposition | vastly increased amounts of calcium deposition | require | detrimental to matrix secretion | – | –
3 | O=C[C@H](O)[C@@H](O)[C@H](O)[C@H](O)C(=O)O [glucuronic acid] | vastly augments cartilage formation | – | require | – | – | –
4 | hyaluronic acid | vastly augments cartilage formation | vastly increased amounts of calcium deposition | repress it | – | detrimental to matrix deposition | –
5 | Cc1c(C)c2c(c(C)c1O)CCC(C)(COc1ccc(CC3SC(=O)NC3=O)cc1)O2 (centres unmarked) [Troglitazone] | – | – | – | – | – | ≥ 70

Reference: patent US20150299660A1, “DIFFERENTIATION OF HUMAN FIBROBLAST CELLS” (International Stem Cell Corporation, priority 2012, published 2015)
